Experimental findings from patent US8455475B2 (Gruenenthal GmbH, priority 2009, dated 2013) are described below.

The target of one test is T1, rat B1R (bradykinin receptor 1) (Rattus norvegicus, UniProt P97583).
T1 construct: expressed in transfected cells; host or cells: CHO K1 cells
T1 sequence (P97583 1-337): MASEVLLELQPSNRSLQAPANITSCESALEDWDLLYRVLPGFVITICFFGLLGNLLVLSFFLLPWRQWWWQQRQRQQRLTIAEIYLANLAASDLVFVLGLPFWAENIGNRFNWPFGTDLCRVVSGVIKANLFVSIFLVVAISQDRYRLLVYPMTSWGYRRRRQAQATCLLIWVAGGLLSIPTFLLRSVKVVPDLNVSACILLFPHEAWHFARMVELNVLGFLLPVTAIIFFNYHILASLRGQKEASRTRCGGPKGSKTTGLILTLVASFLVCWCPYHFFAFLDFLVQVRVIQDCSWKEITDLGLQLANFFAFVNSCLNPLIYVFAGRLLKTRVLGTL
The experiment in a line: FLIPR Ca2+ assay (Fluo-4) on CHO K1 cells stably transfected with the B1R gene of the rat (rB1R cells): % inhibition at 10 μM / IC50, agonist Des-Arg9-bradykinin. It counts as cell-based. The settings on record: CHO-K1, rat B1R. Put shortly: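 Cells were Fluo-4-loaded, then test compound (10 μM, or a concentration series for IC50) was preincubated 10–20 min before agonist challenge at EC80: Lys-Des-Arg9-bradykinin for hB1R, Des-Arg9-bradykinin for rB1R. Peak Ca2+ fluorescence (ex 488/em 540 nm) gave % inhibition versus maximal achievable inhibition.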
As to `Cn1cccc1CN1CCC2(CC1)CCN(C(=O)c1ccc3c(c1)C(NC(=O)c1c(F)cccc1Cl)CC3)CC2` (stereo not shown) [IND_CC-787, 2-Chloro-6-fluoro-N-[6-[9-[(1-methyl-1H-pyrrol-2-yl)-methyl]-3,9-diazaspiro[5.5]undecane-3-carbonyl]-2,3-dihydro-1H-inden-1-yl]-benzamide], the inhibition (commonly the change of the read-out against control, counted positive when it falls) at 10 µM turned out to be 93%.
`O=C(NC1CCc2ccc(C(=O)N3CCC4(CCN(Cc5c(F)cccc5F)CC4)CC3)cc21)c1c(F)cccc1Cl` (stereo not shown) [IND_CC-788, 2-Chloro-N-[6-[9-[(2,6-difluoro-phenyl)-methyl]-3,9-diazaspiro[5.5]undecane-3-carbonyl]-2,3-dihydro-1H-inden-1-yl]-6-fluoro-benzamide]: the inhibition at 10 µM turned out to be 71%.
Same read-out and setting: the same measure for `O=C(NC1CCc2ccc(C(=O)N3CCC4(CCN(Cc5ccc(F)c(F)c5)CC4)CC3)cc21)c1c(F)cccc1Cl` (stereo not shown) [IND_CC-789, 2-Chloro-N-[6-[9-[(3,4-difluoro-phenyl)-methyl]-3,9-diazaspiro[5.5]undecane-3-carbonyl]-2,3-dihydro-1H-inden-1-yl]-6-fluoro-benzamide]: 98%; for `O=C(NC1CCc2ccc(C(=O)N3CCC4(CCN(Cc5cc(F)ccc5F)CC4)CC3)cc21)c1c(F)cccc1Cl` (stereo not shown) [IND_CC-790, 2-Chloro-N-[6-[9-[(2,5-difluoro-phenyl)-methyl]-3,9-diazaspiro[5.5]undecane-3-carbonyl]-2,3-dihydro-1H-inden-1-yl]-6-fluoro-benzamide]: 96%; for `O=C(NC1CCc2ccc(C(=O)N3CCC4(CCN(Cc5ccc(F)cc5F)CC4)CC3)cc21)c1c(F)cccc1Cl` (stereo not shown) [IND_CC-791, 2-Chloro-N-[6-[9-[(2,4-difluoro-phenyl)-methyl]-3,9-diazaspiro[5.5]undecane-3-carbonyl]-2,3-dihydro-1H-inden-1-yl]-6-fluoro-benzamide]: 91%.
As to `COc1ccc(CN2CCC3(CC2)CCN(C(=O)c2ccc4c(c2)C(NC(=O)c2c(F)cccc2Cl)CC4)CC3)cc1F` (stereo not shown) [IND_CC-792, 2-Chloro-6-fluoro-N-[6-[9-[(3-fluoro-4-methoxy-phenyl)-methyl]-3,9-diazaspiro[5.5]undecane-3-carbonyl]-2,3-dihydro-1H-inden-1-yl]-benzamide], 10 µM produced 89% inhibition.
Compound `COc1cccc(F)c1CN1CCC2(CC1)CCN(C(=O)c1ccc3c(c1)C(NC(=O)c1c(F)cccc1Cl)CC3)CC2` (stereo not shown) [IND_CC-793, 2-Chloro-6-fluoro-N-[6-[9-[(2-fluoro-6-methoxy-phenyl)-methyl]-3,9-diazaspiro[5.5]undecane-3-carbonyl]-2,3-dihydro-1H-inden-1-yl]-benzamide] gave an inhibition at 10 µM of 79%.
For `COc1ccc(CN2CCC3(CC2)CCN(C(=O)c2ccc4c(c2)C(N2Cc5c(c6c(Cl)cccc6n5C)C2=O)CC4)C3)cc1F` (stereo not shown) [IND_CC-794, 8-Chloro-2-[6-[8-[(3-fluoro-4-methoxy-phenyl)-methyl]-2,8-diazaspiro[4.5]-decane-2-carbonyl]-2,3-dihydro-1H-inden-1-yl]-4-methyl-3,4-dihydro-2H-pyrrolo[3,4-b]indol-1-one], the inhibition at 10 µM amounted to 59%.
In the case of `COc1cccc(F)c1CN1CCC2(CC1)CCN(C(=O)c1ccc3c(c1)C(N1Cc4c(c5c(Cl)cccc5n4C)C1=O)CC3)C2` (stereo not shown) [IND_CC-795, 8-Chloro-2-[6-[8-[(2-fluoro-6-methoxy-phenyl)-methyl]-2,8-diazaspiro[4.5]-decane-2-carbonyl]-2,3-dihydro-1H-inden-1-yl]-4-methyl-3,4-dihydro-2H-pyrrolo[3,4-b]indol-1-one], 10 µM produced 54% inhibition.
On the same count and under the same terms, in the case of `Cn1cncc1CN1CCC2(CC1)CCN(C(=O)c1ccc3c(c1)C(NC(=O)c1c(F)cccc1Cl)CC3)CC2` (stereo not shown) [IND_CC-796, 2-Chloro-6-fluoro-N-[6-[9-[(3-methyl-3H-imidazol-4-yl)-methyl]-3,9-diazaspiro[5.5]undecane-3-carbonyl]-2,3-dihydro-1H-inden-1-yl]-benzamide] it was 66%; in that of `O=C(NC1CCc2ccc(C(=O)N3CCC4(CCN(Cc5csnn5)CC4)CC3)cc21)c1c(F)cccc1Cl` (stereo not shown) [IND_CC-797, 2-Chloro-6-fluoro-N-[6-[9-([1,2,3]thiadiazol-4-yl-methyl)-3,9-diazaspiro[5.5]undecane-3-carbonyl]-2,3-dihydro-1H-inden-1-yl]-benzamide], 91%.
Turning to `Cc1c(CN2CCC3(CC2)CCN(C(=O)c2ccc4c(c2)C(NC(=O)c2c(F)cccc2Cl)CC4)CC3)cnn1C` (stereo not shown) [IND_CC-798, 2-Chloro-N-[6-[9-[(1,5-dimethyl-1H-pyrazol-4-yl)-methyl]-3,9-diazaspiro-[5.5]undecane-3-carbonyl]-2,3-dihydro-1H-inden-1-yl]-6-fluoro-benzamide], the inhibition at 10 µM was found to be 71%.
Compound `Cc1noc(C)c1CN1CCC2(CC1)CCN(C(=O)c1ccc3c(c1)C(NC(=O)c1c(F)cccc1Cl)CC3)CC2` (stereo not shown) [IND_CC-799, 2-Chloro-N-[6-[9-[(3,5-dimethyl-isoxazol-4-yl)-methyl]-3,9-diazaspiro-[5.5]undecane-3-carbonyl]-2,3-dihydro-1H-inden-1-yl]-6-fluoro-benzamide] had an inhibition at 10 µM of 52%.
Same read-out and setting: the same measure for `N#Cc1cccc(CN2CCC3(CC2)CCN(C(=O)c2ccc4c(c2)C(NC(=O)c2c(F)cccc2Cl)CC4)CC3)c1` (stereo not shown) [IND_CC-800, 2-Chloro-N-[6-[9-[(3-cyano-phenyl)-methyl]-3,9-diazaspiro[5.5]undecane-3-carbonyl]-2,3-dihydro-1H-inden-1-yl]-6-fluoro-benzamide]: 97%; for `N#Cc1ccccc1CN1CCC2(CC1)CCN(C(=O)c1ccc3c(c1)C(NC(=O)c1c(F)cccc1Cl)CC3)CC2` (stereo not shown) [IND_CC-801, 2-Chloro-N-[6-[9-[(2-cyano-phenyl)-methyl]-3,9-diazaspiro[5.5]undecane-3-carbonyl]-2,3-dihydro-1H-inden-1-yl]-6-fluoro-benzamide]: 92%; for `O=C(NC1CCc2ccc(C(=O)N3CCC4(CCN(Cc5ccc(F)cc5Cl)CC4)CC3)cc21)c1c(F)cccc1Cl` (stereo not shown) [IND_CC-802, 2-Chloro-N-[6-[9-[(2-chloro-4-fluoro-phenyl)-methyl]-3,9-diazaspiro-[5.5]undecane-3-carbonyl]-2,3-dihydro-1H-inden-1-yl]-6-fluoro-benzamide]: 89%.
On to `O=C(NC1CCc2ccc(C(=O)N3CCC4(CCN(Cc5c(F)cccc5Cl)CC4)CC3)cc21)c1c(F)cccc1Cl` (stereo not shown) [IND_CC-803, 2-Chloro-N-[6-[9-[(2-chloro-6-fluoro-phenyl)-methyl]-3,9-diazaspiro-[5.5]undecane-3-carbonyl]-2,3-dihydro-1H-inden-1-yl]-6-fluoro-benzamide], for which testing at 10 µM gave an inhibition of 76%.
Compound `O=C(NC1CCc2ccc(CC(=O)N3CCC4(CCN(Cc5ccc6ncccc6c5)CC4)C3)cc21)c1ccccc1Cl` (stereo not shown) [IND_CC-804, 2-Chloro-N-[6-[2-oxo-2-[8-(quinolin-6-yl-methyl)-3,8-diazaspiro[4.5]decan-3-yl]-ethyl]-2,3-dihydro-1H-inden-1-yl]-benzamide] gave an inhibition at 10 µM of 61%.
Regarding `O=C(NC1CCc2ccc(CC(=O)N3CCC4(CCN(Cc5ccc6nccnc6c5)CC4)C3)cc21)c1ccccc1Cl` (stereo not shown) [IND_CC-805, 2-Chloro-N-[6-[2-oxo-2-[8-(quinoxalin-6-yl-methyl)-3,8-diazaspiro[4.5]decan-3-yl]-ethyl]-2,3-dihydro-1H-inden-1-yl]-benzamide], the inhibition at 10 µM turned out to be 51%.
Still for that read-out and setting: the same measure for `CCC(CC)CN1CCC2(CC1)CCN(C(=O)Cc1ccc3c(c1)C(NC(=O)c1ccccc1Cl)CC3)C2` (stereo not shown) [IND_CC-806, 2-Chloro-N-[6-[2-[8-(2-ethyl-butyl)-3,8-diazaspiro[4.5]decan-3-yl]-2-oxo-ethyl]-2,3-dihydro-1H-inden-1-yl]-benzamide]: 75%; for `O=C(NC1CCc2ccc(CC(=O)N3CCC4(CCN(CC5CCCCC5)CC4)C3)cc21)c1ccccc1Cl` (stereo not shown) [IND_CC-807, 2-Chloro-N-[6-[2-[8-(cyclohexyl-methyl)-3,8-diazaspiro[4.5]decan-3-yl]-2-oxo-ethyl]-2,3-dihydro-1H-inden-1-yl]-benzamide]: 53%.
For the compound `COc1cc(C)c(S(=O)(=O)NC2CCc3ccc(C(=O)N4CCC5(CCN(c6ccncc6)CC5)C4)cc32)c(C)c1` (stereo not shown) [Ind_CC-087, 4-methoxy-2,6-dimethyl-N-[6-(8-pyridin-4-yl-2,8-diazaspiro[4.5]decane-2-carbonyl)-2,3-dihydro-1H-inden-1-yl]-benzenesulfonic acid amide], the inhibition at 10 µM turned out to be 100%.
Take `COc1cc(C)c(C(=O)NC2CCc3ccc(C(=O)N4CCC5(CCN(c6ccncc6)CC5)C4)cc32)c(C)c1` (stereo not shown) [Ind_CC-088, 4-methoxy-2,6-dimethyl-N-[6-(8-pyridin-4-yl-2,8-diazaspiro[4.5]decane-2-carbonyl)-2,3-dihydro-1H-inden-1-yl]-benzamide]: 10 µM produced 93% inhibition.
`O=C(c1ccc2c(c1)C(NS(=O)(=O)c1ccccc1Cl)CC2)N1CCC2(CCN(c3ccncc3)CC2)C1` (stereo not shown) [Ind_CC-089, 2-chloro-N-[6-(8-pyridin-4-yl-3,8-diazaspiro[4.5]decane-3-carbonyl)-2,3-dihydro-1H-inden-1-yl]-benzenesulfonic acid amide] registered an inhibition at 10 µM of 100%.

Still in this test, the particulars now being: rat B1R.
As to “N,3-Dimethyl-N-[6-(9-pyridin-4-yl-3,9-diazaspiro[5.5]undecane-3-carbonyl)-2,3-dihydro-1H-inden-1-yl]-butyramide [IND_CC-408]”, the “% Inhibition (rat B1R) at 10 μM” value is given as 101%.
